Source: ChEMBL document CHEMBL1201862, “PubChem BioAssay data set” (2004)
Activity calls are given as the source filed them.

Tests used:
[1] = ADAM10 inhibitors, peptide cleavage, dose response, biochemical, QFRET (AID 743254);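 also: ADAM10 enzyme with the DM2 quenched FRET peptide as substrate; EDANS fluorescence gain as the protease cuts the substrate; inhibitor potency against ADAM10 proteolytic activity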
[2] = target: Disintegrin and metalloproteinase domain-containing protein 17 (Homo sapiens, UniProt P78536); experiment: ADAM17 protease inhibitors, dose response, counter-screen for ADAM10 exosite inhibitor project, biochemical, quenched FRET substrate (AID 743253)
Sequence of Disintegrin and metalloproteinase domain-containing protein 17 (P78536 whole entry, the tested form may be a part): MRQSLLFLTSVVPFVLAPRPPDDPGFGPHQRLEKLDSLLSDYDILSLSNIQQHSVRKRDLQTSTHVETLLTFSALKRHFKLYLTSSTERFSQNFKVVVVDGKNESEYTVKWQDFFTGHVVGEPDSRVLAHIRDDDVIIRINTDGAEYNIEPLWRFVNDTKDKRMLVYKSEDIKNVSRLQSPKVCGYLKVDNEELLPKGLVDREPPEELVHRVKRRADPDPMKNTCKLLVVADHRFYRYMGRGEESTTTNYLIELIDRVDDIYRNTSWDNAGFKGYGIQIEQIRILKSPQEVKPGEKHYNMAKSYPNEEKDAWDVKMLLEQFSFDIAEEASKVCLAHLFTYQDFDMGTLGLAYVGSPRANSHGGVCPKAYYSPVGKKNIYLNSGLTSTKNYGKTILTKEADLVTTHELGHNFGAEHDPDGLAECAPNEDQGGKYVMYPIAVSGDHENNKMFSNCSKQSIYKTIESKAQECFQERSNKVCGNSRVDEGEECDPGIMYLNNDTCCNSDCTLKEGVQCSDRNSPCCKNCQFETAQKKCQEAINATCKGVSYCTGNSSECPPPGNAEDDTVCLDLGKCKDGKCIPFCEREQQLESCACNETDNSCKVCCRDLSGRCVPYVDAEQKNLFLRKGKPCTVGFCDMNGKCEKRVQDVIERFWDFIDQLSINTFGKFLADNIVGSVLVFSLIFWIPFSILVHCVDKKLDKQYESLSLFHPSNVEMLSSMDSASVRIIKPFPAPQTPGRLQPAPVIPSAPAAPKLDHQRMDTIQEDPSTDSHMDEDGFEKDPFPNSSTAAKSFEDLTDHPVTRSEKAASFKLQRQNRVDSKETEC

[3] = target: Potassium channel subfamily K member 9 (Homo sapiens, UniProt Q9NPC2); experiment: TASK3 (KCNK9) channel inhibitors, thallium flux, SAR follow-up, selectivity assay for TASK1 inhibitor project, cell-based, FluxOR thallium flux, concentration-response (AID 652211); format: functional;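 also: potency is for inhibitors of the channel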
Sequence of Potassium channel subfamily K member 9 (Q9NPC2 whole entry): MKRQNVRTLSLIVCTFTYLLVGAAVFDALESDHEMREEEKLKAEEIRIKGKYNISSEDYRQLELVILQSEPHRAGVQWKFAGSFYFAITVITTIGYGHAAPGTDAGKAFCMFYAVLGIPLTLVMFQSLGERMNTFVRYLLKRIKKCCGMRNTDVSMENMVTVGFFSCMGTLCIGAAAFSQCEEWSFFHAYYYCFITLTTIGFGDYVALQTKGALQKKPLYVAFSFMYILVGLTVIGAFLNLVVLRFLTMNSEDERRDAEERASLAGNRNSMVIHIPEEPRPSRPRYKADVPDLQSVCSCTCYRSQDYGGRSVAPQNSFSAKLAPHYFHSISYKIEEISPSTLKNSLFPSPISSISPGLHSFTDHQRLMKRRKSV

[4] = target: Potassium channel subfamily K member 3 (Homo sapiens, UniProt O14649); experiment: TASK1 (KCNK3) potassium channel inhibitors, SAR follow-up, CHO cells, FluxOR thallium flux (AID 652212); format: functional
Sequence of Potassium channel subfamily K member 3 (O14649 whole entry): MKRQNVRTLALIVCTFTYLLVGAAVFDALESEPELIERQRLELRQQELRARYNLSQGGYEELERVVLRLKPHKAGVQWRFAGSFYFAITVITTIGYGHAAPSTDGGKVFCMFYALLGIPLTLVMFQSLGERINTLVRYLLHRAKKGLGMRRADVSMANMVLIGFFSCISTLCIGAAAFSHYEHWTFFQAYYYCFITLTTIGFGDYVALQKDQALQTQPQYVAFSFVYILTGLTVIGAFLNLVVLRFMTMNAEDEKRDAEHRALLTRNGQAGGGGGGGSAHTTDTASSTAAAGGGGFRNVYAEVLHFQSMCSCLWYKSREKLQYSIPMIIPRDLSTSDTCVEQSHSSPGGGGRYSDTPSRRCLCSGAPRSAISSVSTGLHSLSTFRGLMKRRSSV

[5] = target: NAD-dependent protein deacylase sirtuin-5, mitochondrial (Homo sapiens, UniProt Q9NXA8); experiment: SIRT5 desuccinylase inhibitors, dose response, biochemical, fluorescence imaging, cherry-pick, set 5 (AID 720591);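 also: desuccinylation of succinyl peptide AMC substrate read as fluorescence after trypsin release; potency of inhibitors that lower fluorescence and may act on trypsin instead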
Sequence of NAD-dependent protein deacylase sirtuin-5, mitochondrial (Q9NXA8 whole entry): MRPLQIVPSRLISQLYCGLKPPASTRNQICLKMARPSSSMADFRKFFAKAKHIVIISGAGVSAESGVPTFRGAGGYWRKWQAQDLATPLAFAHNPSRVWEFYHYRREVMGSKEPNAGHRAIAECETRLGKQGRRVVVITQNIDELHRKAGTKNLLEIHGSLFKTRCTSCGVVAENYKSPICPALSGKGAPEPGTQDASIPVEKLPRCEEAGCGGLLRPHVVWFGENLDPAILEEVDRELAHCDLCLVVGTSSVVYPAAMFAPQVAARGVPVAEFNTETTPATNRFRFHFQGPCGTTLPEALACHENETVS

[6] = target: T1, Heat shock factor protein 1 (Mus musculus, UniProt P38532); experiment: HSF1 potentiators in luciferase reporter cells, confirmation, cell-based, NIH3T3, luminescence, dose retest (AID 435004); format: functional;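 also: stress induced by proteasome inhibitor MG132 added 30 min after compound; luciferase reporter driven by HSF1 response element in NIH3T3 cells; actives raise luminescence as potentiators of the MG132 stress response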
T1 sequence (P38532 whole entry): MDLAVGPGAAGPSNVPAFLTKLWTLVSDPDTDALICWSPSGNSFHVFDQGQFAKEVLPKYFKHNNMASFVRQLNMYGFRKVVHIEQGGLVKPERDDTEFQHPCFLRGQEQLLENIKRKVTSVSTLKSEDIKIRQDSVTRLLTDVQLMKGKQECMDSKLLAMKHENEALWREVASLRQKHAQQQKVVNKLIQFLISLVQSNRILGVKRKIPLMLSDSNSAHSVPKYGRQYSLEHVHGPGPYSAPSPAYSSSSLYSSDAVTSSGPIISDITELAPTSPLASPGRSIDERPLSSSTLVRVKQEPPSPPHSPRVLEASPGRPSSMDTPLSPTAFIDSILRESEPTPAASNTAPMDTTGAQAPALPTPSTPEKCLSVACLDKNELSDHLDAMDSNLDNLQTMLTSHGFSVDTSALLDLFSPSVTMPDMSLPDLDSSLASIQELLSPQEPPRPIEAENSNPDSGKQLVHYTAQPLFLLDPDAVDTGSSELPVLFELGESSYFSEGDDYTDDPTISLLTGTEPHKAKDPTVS

[7] = target: T2, Oxysterols receptor LXR-beta (Homo sapiens, UniProt P55055); format: functional, cell-based;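 also: agonist activity at LXR measured by a cell-based luminescence readout across a dose range, run as a counterscreen for daf-12 agonists; HEK293 cells with Gal4-LXR fusion and GAL4-driven luciferase reporter; potency for activation of Gal4-LXR reporter so compounds are agonists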
T2 sequence (P55055 whole entry): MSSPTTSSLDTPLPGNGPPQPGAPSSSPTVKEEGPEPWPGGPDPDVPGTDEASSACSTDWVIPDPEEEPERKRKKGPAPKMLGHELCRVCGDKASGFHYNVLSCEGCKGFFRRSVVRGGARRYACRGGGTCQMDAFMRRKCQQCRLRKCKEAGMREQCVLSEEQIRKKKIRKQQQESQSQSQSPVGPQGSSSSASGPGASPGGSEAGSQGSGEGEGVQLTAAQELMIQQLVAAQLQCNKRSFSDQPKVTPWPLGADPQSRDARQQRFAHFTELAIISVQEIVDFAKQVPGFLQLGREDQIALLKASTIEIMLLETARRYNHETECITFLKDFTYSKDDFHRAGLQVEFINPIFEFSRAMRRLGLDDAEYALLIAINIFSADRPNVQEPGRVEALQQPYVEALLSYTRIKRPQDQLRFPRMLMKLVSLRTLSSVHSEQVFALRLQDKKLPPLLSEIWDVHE

[8] = target: Paired box protein Pax-8 (Homo sapiens, UniProt Q06710); experiment: inhibitors of PAX8-driven TPO luciferase reporter, dose response, RMG-I cells, cherry-pick (AID 687027); format: functional, cell-based;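 also: luciferase reporter driven by Pax8 target thyroperoxidase promoter measured by SteadyGlo luminescence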
Sequence of Paired box protein Pax-8 (Q06710 whole entry): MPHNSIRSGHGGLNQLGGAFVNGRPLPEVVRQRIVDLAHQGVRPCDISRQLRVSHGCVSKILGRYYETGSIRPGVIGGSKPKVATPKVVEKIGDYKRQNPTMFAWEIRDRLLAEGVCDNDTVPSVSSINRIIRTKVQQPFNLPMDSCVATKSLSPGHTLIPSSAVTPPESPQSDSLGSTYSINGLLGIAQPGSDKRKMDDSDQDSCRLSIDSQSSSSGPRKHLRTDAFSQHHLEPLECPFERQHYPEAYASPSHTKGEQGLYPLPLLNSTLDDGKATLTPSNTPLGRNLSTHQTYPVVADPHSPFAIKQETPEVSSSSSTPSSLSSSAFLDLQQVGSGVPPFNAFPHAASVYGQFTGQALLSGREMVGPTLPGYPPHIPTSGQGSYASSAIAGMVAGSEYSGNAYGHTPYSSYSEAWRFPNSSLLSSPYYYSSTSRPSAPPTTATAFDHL

[9] = PAX2 cell-based inhibition, dose response, selectivity assay for PAX8 inhibitor project, plate reader, dry powder samples (AID 743048); format: functional;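 also: HEK293 cells carrying a WT1 promoter luciferase reporter driven by expressed Pax2; potency is for inhibition of Pax2 driven reporter signal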
[10] = cytotoxicity in COV362 ovarian cancer cells, dose response, cytotoxicity control for PAX8 inhibitor project, cell-based, plate reader, dry powder, SA12 (AID 743144); format: functional
[11] = IOSE-T80 ovarian epithelial cell cytotoxicity, dose response, cytotoxicity control for PAX8 inhibitor project, plate reader, dry powder samples (AID 743045); format: functional, cell-based
[12] = NIH:OVCAR-3 ovarian cancer cell cytotoxicity, dose response, PAX8 inhibitor project, plate reader, dry powder samples (AID 743044); format: functional, cell-based
[13] = PAX5 activity inhibitors, dose response, selectivity assay for PAX8 inhibitor project, cell-based, plate reader, dry powder samples (AID 743047); format: functional;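 also: HEK293 cells carrying a Pax5 driven CD19 promoter luciferase reporter; potency of inhibitors that lower reporter luminescence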
[14] = IGROV1 ovarian cancer cell cytotoxicity, dose response, PAX8 inhibitor project, plate reader, dry powder samples (AID 743043); format: functional, cell-based; conditions: IGROV-1
[15] = cytotoxicity in OVCAR4 cells, dose response, cytotoxicity control for PAX8 inhibitor project, cell-based, plate reader, dry powder, SA11 (AID 743150); format: functional; conditions: OVCAR-4
[16] = cytotoxicity in COV434 cells, dose response, cytotoxicity control for PAX8 inhibitor project, cell-based, plate reader, dry powder, SA7 (AID 743145); format: functional
[17] = cytotoxicity in OV-90 ovarian cancer cells, dose response, PAX8 inhibitor project, cell-based, plate reader, dry powder, SA8 (AID 743149); format: functional
[18] = cytotoxicity in OVCAR8 ovarian cancer cells, dose response, PAX8 project, cell-based, plate reader, dry powder samples (AID 743197); format: functional; conditions: OVCAR-8
[19] = cytotoxicity dependent on PAX8, dose response, cell-based, plate reader, dry powder (AID 743049); format: functional
[20] = P. falciparum 3D7-ScDHODH growth inhibitors, dose response, SYBR Green, dry powder samples (AID 1159570); format: functional, cell-based;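 also: parasite growth measured after 72 hours of compound exposure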
[21] = HepG2 cell cytotoxicity, dose response, cytotoxicity control, plate reader, dry powder samples (AID 1159569); format: functional, cell-based;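 also: inhibitor potency with signal falling toward the positive control level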
[22] = P. falciparum Dd2 growth inhibitors, dose response, SYBR Green, cherry-picked samples (AID 1159567); format: functional, cell-based
[23] = P. falciparum Dd2 growth inhibitors, dose response, SYBR Green, dry powder samples (AID 1159566); format: functional, cell-based;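 also: potency for growth inhibition with lower SYBR green DNA signal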
[24] = HepG2 cell cytotoxicity, dose response, cytotoxicity control, cherry-picked samples (AID 1159577); format: functional, cell-based
[25] = P. falciparum ATP4 D1247Y mutant growth inhibitors, dose response, NITD609-resistant line, SYBR Green, dry powder (AID 1159571); format: functional, cell-based;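 also: parasites synchronized at ring stage by sorbitol before testing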
[26] = target: T3, Rac GTPase-activating protein 1 (Homo sapiens, UniProt Q9H0H5); experiment: MgcRacGAP GTPase-activating activity inhibitors, confirmation, biochemical, ADP Hunter fluorescence, primary and confirmatory (AID 624330); format: functional
T3 sequence (Q9H0H5 whole entry): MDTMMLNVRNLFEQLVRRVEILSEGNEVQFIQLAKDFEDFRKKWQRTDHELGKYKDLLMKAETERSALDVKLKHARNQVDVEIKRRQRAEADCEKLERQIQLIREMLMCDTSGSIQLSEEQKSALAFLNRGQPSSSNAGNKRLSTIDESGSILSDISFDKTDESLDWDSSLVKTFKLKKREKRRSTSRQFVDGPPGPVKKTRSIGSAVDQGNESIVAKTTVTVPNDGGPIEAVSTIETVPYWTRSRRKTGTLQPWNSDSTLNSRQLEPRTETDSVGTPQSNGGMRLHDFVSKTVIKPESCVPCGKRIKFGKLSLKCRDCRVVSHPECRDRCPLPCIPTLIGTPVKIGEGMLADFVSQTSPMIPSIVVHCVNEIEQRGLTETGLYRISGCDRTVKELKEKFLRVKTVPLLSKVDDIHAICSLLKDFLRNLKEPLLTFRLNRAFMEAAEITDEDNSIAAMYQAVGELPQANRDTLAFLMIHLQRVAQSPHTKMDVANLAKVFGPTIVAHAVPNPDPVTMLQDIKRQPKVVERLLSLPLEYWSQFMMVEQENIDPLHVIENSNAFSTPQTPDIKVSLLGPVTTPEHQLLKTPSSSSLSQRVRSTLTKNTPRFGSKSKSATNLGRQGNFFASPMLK

With `CC1(Cc2ccc(C(F)(F)F)o2)C(=O)Nc2ccc(-c3cccc(C(F)(F)F)c3)cc21` (centres undefined) the IC50 [1] was 11.3 µM (inactive) and the IC50 [2] was > 69.6 µM (inactive).
With `CCc1ccc(-c2cn(C3CCCCC3)c(=S)[nH]2)cc1` the IC50 [2] was > 69.5 µM (inactive).
In the case of `CCOc1ccccc1NC(=O)c1cccc(NC(=O)C(C)(C)C)c1`, the IC50 [3] is reported as 30.5 µM (active) and the IC50 [4] is reported as 1.32 µM (active).
In the case of `CCc1ccccc1-n1c(SCC(=O)NC)nnc1-c1ccco1`, the AC50 [5] is reported as > 30 µM (inactive).
For `Cc1cc(NC(=O)CSc2nc3c(cc2C#N)CCC3)no1`, the EC50 [6] was 0.83 µM (active) and the EC50 [7] was > 67.6 µM (inactive).
With `CC(C)(C)c1ccc(S(=O)(=O)NC(=O)C2(C)CCN2C(=O)C2CCCCC2)cc1` (centres undefined) the AC50 [5] was > 30 µM (inactive).
With `COc1ccccc1C#Cc1ccc([C@H]2[C@@H](CO)N(C(=O)C3CCCCC3)[C@H]2C#N)cc1` the AC50 [8] was 3.4 µM (active), the AC50 [9] was 9.82 µM (active) and the AC50 [10] was 36.4 µM (active). For the same compound, the AC50 [11] was 42.5 µM (active), the AC50 [12] was 18.9 µM (active) and the AC50 [13] was 6.15 µM (active). For the same compound, the AC50 [14] was 44.8 µM (active), the AC50 [15] was 63.6 µM (active) and the AC50 [16] was 20.6 µM (active). For the same compound, the AC50 [17] was 28.6 µM (active), the AC50 [18] was 60.8 µM (active) and the AC50 [19] was 12.2 µM (active). The AC50 [20] was 1.19 µM (active), the AC50 [21] was 35.2 µM (active) and the AC50 [22] was 1.36 µM (active). The AC50 [23] was 0.684 µM (active), the AC50 [24] was > 39 µM (inactive) and the AC50 [25] was 1.53 µM (active).
In the case of `Nc1ccc2c(c1)Cc1cc(N)c(Cl)cc1-2`, the IC50 [26] is reported as 8.46 µM (active) and the EC50 [7] is reported as > 67.4 µM (inactive).
